We go through 22 compounds from patent publication US11512079B2, “Heterocycle substituted pyridine derivative antifungal agents” (Amplyx Pharmaceuticals, Inc., priority 2017, dated 2022).

In brackets after ≈: the same amount, converted by molar mass.

Format in all cases: cell-based
In assay [1] the test system is Candida albicans 90028. Briefly: In vitro antifungal assay (Example IX), microdilution broth, MIC. Conditions: minimum inhibitory concentration (≥50% inhibition), 35° C., 40-48 h, RPMI1640. In outline: (§1)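 CLSI broth microdilution in RPMI1640 with 2.5×10^3 cells/mL and final compound concentrations of 2-0.0019 μg/mL (1% DMSO). C. albicans 90028 plates were incubated at 35° C. for 40-48 h and C. neoformans H99 for 72 h. MIC was read as minimum inhibitory concentration, verified at 600 nm.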

In assay [2] the test system is Cryptococcus neoformans H99. The description is as above. The following applies: minimum inhibitory concentration (≥50% inhibition), 35° C., 72 h, RPMI1640. In outline: as §1
Assay [3] concerns Aspergillus fumigatus MYA3626. Briefly: In vitro antifungal assay (Example IX), microdilution broth, MEC. The following applies: minimum effective concentration (shortening of hyphae), 35° C., 40-48 h, RPMI1640. In outline:
(§2)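 Spore suspensions of A. fumigatus and R. pusillus adjusted to 1-2×10^4 spores/mL in RPMI1640 and exposed to compound dilutions prepared in DMSO, by broth microdilution. MEC taken as the lowest concentration shortening hyphae versus DMSO control wells, read as for echinocandins.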
For orientation: Dilution methods test growth across graded concentrations, often in twofold steps.

Assay [4] relates to Rhizomucor pusillus 46342. The assay is described as above. The following applies: minimum effective concentration (shortening of hyphae), 35° C., 40-48 h, RPMI1640. The procedure, abridged:
as §2

Assay [5] has as its system Cryptococcus gattii. Briefly: In vitro antifungal assay (Example IX), microdilution broth, MIC. Conditions: minimum inhibitory concentration (≥50% inhibition), 35° C., 72 h (Cryptococcus), RPMI1640. In outline: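 Broth microdilution in RPMI1640 with 2.5×10^3 cells/mL inoculum; final compound concentrations were 2–0.0019 μg/mL, with 1% DMSO. Cryptococcus plates were incubated at 35 °C for 72 h, and growth was read at 600 nm to give the MIC.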

Usually MIC stands for the lowest concentration found to suppress growth. Low values mean greater potency, high ones weaker potency. What is called minimal effective concentration is the lowest level tested that produced the effect sought. As to `Nc1ncccc1-c1cc(Cc2ccc(COc3cccc(F)c3)cc2)no1` [Example 169, 3-(3-(4-((3-fluorophenoxy)methyl)benzyl)isoxazol-5-yl)pyridin-2-amine], the MIC in assay [1], in assay [2] and in assay [5] was 0.01 to 0.1 µg/mL (≈ 0.0266 to 0.266 µM) throughout. The minimal effective concentration lay within 0.01 to 0.1 µg/mL in assay [3] and 0.1 to 1 µg/mL in assay [4].
On to `Nc1ncccc1-c1cc(Cc2ccc(Cn3cccn3)cc2)no1` [compound 1, 3-(3-(4-((1H-pyrazol-1-yl)methyl)benzyl)isoxazol-5-yl)pyridin-2-amine], for which the MIC in assay [1] was in the range of 0.01 to 0.1 µg/mL (≈ 0.0302 to 0.302 µM); in assay [2], 0.1 to 1 µg/mL (≈ 0.302 to 3.02 µM); in assay [5], 0.01 to 0.1 µg/mL (≈ 0.0302 to 0.302 µM). In addition, the minimal effective concentration was 0.1 to 1 µg/mL in assay [3] and > 1 µg/mL in assay [4].
For `Nc1ncccc1-c1cc(Cc2ccc(Cn3cc(F)cn3)cc2)no1` [compound 4, 3-(3-(4-((4-fluoro-1H-pyrazol-1-yl)methyl)benzyl)isoxazol-5-yl)pyridin-2-amine], the MIC in assay [1], in assay [2] and in assay [5] was 0.1 to 1 µg/mL (≈ 0.286 to 2.86 µM) in each case. The minimal effective concentration was 0.01 to 0.1 µg/mL in assay [3] and 0.1 to 1 µg/mL in assay [4].
As for `Nc1ncccc1-c1cc(Cc2ccc(Cn3cc(C(F)(F)F)cn3)cc2)no1` [compound 5, 3-(3-(4-((4-(trifluoromethyl)-1H-pyrazol-1-yl)methyl)benzyl)isoxazol-5-yl)pyridin-2-amine], the minimum inhibitory concentration (MIC) in assay [1], in assay [2] and in assay [5] was 0.1 to 1 µg/mL (≈ 0.25 to 2.5 µM) throughout. The minimal effective concentration in assay [3] and in assay [4] was 0.1 to 1 µg/mL throughout.
`Nc1ncccc1-c1cc(Cc2ccc(Cc3ccccc3)cc2)no1` [compound 8, 3-(3-(4-benzylbenzyl)isoxazol-5-yl)pyridin-2-amine]: the MIC is 0.1 to 1 µg/mL (≈ 0.293 to 2.93 µM) in assay [1], 0.01 to 0.1 µg/mL (≈ 0.0293 to 0.293 µM) in assay [2] and ≤ 0.01 µg/mL in assay [5]. In addition, the minimal effective concentration in assay [3] and in assay [4] was 0.1 to 1 µg/mL each time.
As to `Nc1ncccc1-c1cc(Cc2ccc(Cc3cccnc3)cc2)no1` [compound 9, 3-(3-(4-(pyridin-3-ylmethyl)benzyl)isoxazol-5-yl)pyridin-2-amine], the MIC was in the range of 0.01 to 0.1 µg/mL (≈ 0.0292 to 0.292 µM) in assay [1], 0.1 to 1 µg/mL (≈ 0.292 to 2.92 µM) in assay [2] and 0.01 to 0.1 µg/mL (≈ 0.0292 to 0.292 µM) in assay [5]. The minimal effective concentration in assay [3] and in assay [4] was 0.1 to 1 µg/mL throughout.
Consider `Nc1ncccc1-c1cc(Cc2ccc(Cc3cn[nH]c3)cc2)no1` [compound 10, 3-(3-(4-((1H-pyrazol-4-yl)methyl)benzyl)isoxazol-5-yl)pyridin-2-amine], for which the MIC in assay [1], in assay [2] and in assay [5] was 0.1 to 1 µg/mL (≈ 0.302 to 3.02 µM) throughout. Further, the minimal effective concentration is 0.1 to 1 µg/mL in assay [3] and > 1 µg/mL in assay [4].
`Cn1cc(Cc2ccc(Cc3cc(-c4cccnc4N)on3)cc2)cn1` [compound 11, 3-(3-(4-((1-methyl-1H-pyrazol-4-yl)methyl)benzyl)isoxazol-5-yl)pyridin-2-amine]: the MIC in assay [1], in assay [2] and in assay [5] was 0.1 to 1 µg/mL (≈ 0.29 to 2.9 µM) throughout. Besides, the minimal effective concentration in assay [3] is 0.01 to 0.1 µg/mL; in assay [4], > 1 µg/mL.
For the compound `CCn1cc(Cc2ccc(Cc3cc(-c4cccnc4N)on3)cc2)cn1` [compound 12, 3-(3-(4-((1-ethyl-1H-pyrazol-4-yl)methyl)benzyl)isoxazol-5-yl)pyridin-2-amine], the MIC in assay [1], in assay [2] and in assay [5] was 0.1 to 1 µg/mL (≈ 0.278 to 2.78 µM) each time. The minimal effective concentration is 0.01 to 0.1 µg/mL in assay [3] and > 1 µg/mL in assay [4].
As to `Nc1ncccc1-c1cc(Cc2ccc(Cc3cnoc3)cc2)no1` [compound 14, 3-(3-(4-(isoxazol-4-ylmethyl)benzyl)isoxazol-5-yl)pyridin-2-amine], the MIC in assay [1], in assay [2] and in assay [5] was 0.1 to 1 µg/mL (≈ 0.301 to 3.01 µM) in each case. The minimal effective concentration in assay [3] lay in the range of 0.01 to 0.1 µg/mL; in assay [4] it was 0.1 to 1 µg/mL.
For the compound `Nc1ncccc1-c1cc(Cc2ccc(Cc3cccc(F)n3)cc2)no1` [compound 15, 3-(3-(4-((6-fluoropyridin-2-yl)methyl)benzyl)isoxazol-5-yl)pyridin-2-amine], the MIC in assay [1], in assay [2] and in assay [5] was 0.01 to 0.1 µg/mL (≈ 0.0277 to 0.277 µM) each time. The minimal effective concentration in assay [3] was ≤ 0.01 µg/mL; in assay [4], 0.1 to 1 µg/mL.
For `Nc1ncccc1-c1cc(Cc2ccc(CC3=CCCC3)cc2)no1` [compound 17, 3-(3-(4-(cyclopent-1-en-1-ylmethyl)benzyl)isoxazol-5-yl)pyridin-2-amine], the MIC in assay [1], in assay [2] and in assay [5] was 0.01 to 0.1 µg/mL (≈ 0.0302 to 0.302 µM) throughout. The minimal effective concentration fell in the range of 0.01 to 0.1 µg/mL in assay [3] and 0.1 to 1 µg/mL in assay [4].
As for `Nc1ncccc1-c1cc(Cc2ccc(CCc3ccccc3)cc2)no1` [compound 18, 3-(3-(4-phenethylbenzyl)isoxazol-5-yl)pyridin-2-amine], the minimal inhibitory concentration (MIC) in assay [1] was in the range of 0.01 to 0.1 µg/mL (≈ 0.0281 to 0.281 µM); in assay [2] it was 0.1 to 1 µg/mL (≈ 0.281 to 2.81 µM); in assay [5] it was 0.1 to 1 µg/mL (≈ 0.281 to 2.81 µM). Further, the results for the minimal effective concentration in assay [3] and in assay [4] were 0.01 to 0.1 µg/mL and 0.1 to 1 µg/mL, respectively.
`Nc1ncccc1-c1cc(Cc2ccc(Cc3ccnc(F)c3)cc2)no1` [compound 19, 3-(3-(4-((2-fluoropyridin-4-yl)methyl)benzyl)isoxazol-5-yl)pyridin-2-amine]: the MIC in assay [1], in assay [2] and in assay [5] was 0.01 to 0.1 µg/mL (≈ 0.0277 to 0.277 µM) each time. The results for the minimal effective concentration in assay [3] and in assay [4] were 0.01 to 0.1 µg/mL and 0.1 to 1 µg/mL, respectively.
As to `Nc1ncccc1-c1cc(Cc2ccc(Cc3ccnc(F)c3F)cc2)no1` [compound 20, 3-(3-(4-((2,3-difluoropyridin-4-yl)methyl)benzyl)isoxazol-5-yl)pyridin-2-amine], the minimal inhibitory concentration (MIC) was 0.1 to 1 µg/mL (≈ 0.264 to 2.64 µM) in assay [1], 0.01 to 0.1 µg/mL (≈ 0.0264 to 0.264 µM) in assay [2] and 0.01 to 0.1 µg/mL (≈ 0.0264 to 0.264 µM) in assay [5]. Moreover, the minimal effective concentration in assay [3] fell in the range of 0.01 to 0.1 µg/mL; in assay [4], 0.1 to 1 µg/mL.
In the case of `Nc1ncccc1-c1cc(Cc2ccc(C(O)c3ccccc3)cc2)no1` (centres unmarked) [compound 22, (4-((5-(2-aminopyridin-3-yl)isoxazol-3-yl)methyl)phenyl) (phenyl)methanol], the MIC in assay [1] fell in the range of 0.1 to 1 µg/mL (≈ 0.28 to 2.8 µM); in assay [2] it was 0.1 to 1 µg/mL (≈ 0.28 to 2.8 µM); in assay [5] it was 0.01 to 0.1 µg/mL (≈ 0.028 to 0.28 µM). Further, the minimal effective concentration was 0.1 to 1 µg/mL in assay [3] and > 1 µg/mL in assay [4].
As to `Nc1ncccc1-c1cc(Cc2ccc(COC3CCCCC3)cc2)no1` [compound 23, 3-(3-(4-((cyclohexyloxy)methyl)benzyl)isoxazol-5-yl)pyridin-2-amine], the figures for the MIC in assay [1], in assay [2] and in assay [5] were 0.1 to 1 µg/mL (≈ 0.275 to 2.75 µM), 0.1 to 1 µg/mL (≈ 0.275 to 2.75 µM) and 0.01 to 0.1 µg/mL (≈ 0.0275 to 0.275 µM), respectively. Besides, the minimal effective concentration in assay [3] and in assay [4] was 0.1 to 1 µg/mL each time.
For the compound `Cc1cc(COc2ccc(Cc3cc(-c4cccnc4N)on3)cc2)no1` [compound 26, 3-(3-(4-((5-methylisoxazol-3-yl)methoxy)benzyl)isoxazol-5-yl)pyridin-2-amine], the MIC in assay [1], in assay [2] and in assay [5] was 0.1 to 1 µg/mL (≈ 0.276 to 2.76 µM) in each case. In addition, the minimal effective concentration in assay [3] was 0.01 to 0.1 µg/mL; in assay [4], > 1 µg/mL.
As to `Nc1ncccc1-c1cc(Cc2ccc(OCc3ccc4ccccc4n3)cc2)no1` [compound 27, 3-(3-(4-(quinolin-2-ylmethoxy)benzyl)isoxazol-5-yl)pyridin-2-amine], the MIC in assay [1], in assay [2] and in assay [5] was 0.1 to 1 µg/mL (≈ 0.245 to 2.45 µM) throughout. The minimal effective concentration in assay [3] and in assay [4] was > 1 µg/mL throughout.
Turning to `Nc1ncccc1-c1cc(Cc2ccc(OCc3ncccn3)cc2)no1` [compound 28, 3-(3-(4-(pyrimidin-2-ylmethoxy)benzyl)isoxazol-5-yl)pyridin-2-amine], the MIC in assay [1], in assay [2] and in assay [5] was 0.1 to 1 µg/mL (≈ 0.278 to 2.78 µM) in each case. Further, the minimal effective concentration is 0.1 to 1 µg/mL in assay [3] and > 1 µg/mL in assay [4].
With `Nc1ncccc1-c1cc(Cc2ccc(OCc3cnc4ccccc4n3)cc2)no1` [compound 30, 3-(3-(4-(quinoxalin-2-ylmethoxy)benzyl)isoxazol-5-yl)pyridin-2-amine], the MIC is 0.1 to 1 µg/mL (≈ 0.244 to 2.44 µM) in assay [1], > 1 µg/mL in assay [2] and > 1 µg/mL in assay [5]. Besides, the minimal effective concentration in assay [3] was > 1 µg/mL; in assay [4] it was 0.1 to 1 µg/mL.
For the compound `Nc1ncccc1-c1cc(Cc2ccc(CNc3cccc(F)n3)cc2)no1` [compound 31, N-(4-((5-(2-aminopyridin-3-yl)isoxazol-3-yl)methyl)benzyl)-6-fluoropyridin-2-amine], the minimum inhibitory concentration (MIC) in assay [1] was in the range of 0.01 to 0.1 µg/mL (≈ 0.0266 to 0.266 µM); in assay [2], 0.1 to 1 µg/mL (≈ 0.266 to 2.66 µM); in assay [5] it was 0.1 to 1 µg/mL (≈ 0.266 to 2.66 µM). In addition, the minimal effective concentration lay within 0.01 to 0.1 µg/mL in assay [3] and 0.1 to 1 µg/mL in assay [4].
